# According to ChEMBL document CHEMBL1201862, “PubChem BioAssay data set” (2004):
# Structures can show the parent of a compound that is named as a salt. Calls of active or inactive are those of the source.
# Legend:
# [1] = target: E3 ubiquitin-protein ligase Mdm2 (Homo sapiens, UniProt Q00987); assay: MDM2-luc reporter signal enhancers, multi-concentration potency testing, MDM2 ubiquitin-protein ligase inhibitor program, whole-cell format, luminescence detection, 384-well microplate (AID 1394); type: functional;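 further: MDM2 E3 inhibitors raise luminescence so EC50 is for signal enhancement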
# Chain of E3 ubiquitin-protein ligase Mdm2 (Q00987 whole entry): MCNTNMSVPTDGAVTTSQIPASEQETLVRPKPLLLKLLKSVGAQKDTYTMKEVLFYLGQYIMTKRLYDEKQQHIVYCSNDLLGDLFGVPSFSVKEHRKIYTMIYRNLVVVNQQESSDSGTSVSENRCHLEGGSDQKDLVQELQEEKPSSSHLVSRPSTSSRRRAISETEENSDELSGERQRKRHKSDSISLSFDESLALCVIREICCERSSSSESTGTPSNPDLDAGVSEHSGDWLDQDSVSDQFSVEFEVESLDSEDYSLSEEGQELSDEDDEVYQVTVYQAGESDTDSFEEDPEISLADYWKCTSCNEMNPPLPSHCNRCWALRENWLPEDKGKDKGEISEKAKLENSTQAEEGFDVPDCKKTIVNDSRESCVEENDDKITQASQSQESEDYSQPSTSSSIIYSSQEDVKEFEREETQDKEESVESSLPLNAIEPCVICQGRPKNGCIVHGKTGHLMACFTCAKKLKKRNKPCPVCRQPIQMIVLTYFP
# [2] = system: Vero; assay: inhibition of WNV-induced cytopathic effect – cell-based, CPE readout (AID 1621); type: functional; settings: Chlorocebus sabaeus
# [3] = Luminescence Cell-Based Dose Response to Identify Activators of 5'UTR Stem-Loop Driven Prion Protein mRNA Translation in H4-C Neuroglioblastoma Cells. [Related pubchem assays: 1829 (Project Summary), 1814 (Primary HTS)]; type: functional
# [4] = Luminescence Cell-Based Dose Response HTS to Identify Activators of Luciferase Translation or Activity in H4 […] Cells. [Related pubchem assays: 1829 (Project Summary), 1814 (Primary HTS)]; type: functional
# [5] = system: H4; assay: Luminescence Cell-Based Dose Response HTS to Identify Activators of 5'UTR Stem-Loop Driven Prion Protein mRNA Translation in H4 Neuroglioblastoma Cells. [Related pubchem assays: 1829 (Project Summary), 1814 (Primary HTS)]; type: functional; settings: Homo sapiens
# [6] = Luminescence Cell-Based Dose Response to Identify Activators of Luciferase Translation or Activity in H4-C Neuroglioblastoma Cells. [Related pubchem assays: 1829 (Project Summary), 1814 (Primary HTS)]; type: functional
# [7] = target: Potassium voltage-gated channel subfamily KQT member 2 (Rattus norvegicus, UniProt O88943, W236L); assay: potentiation of rat KCNQ2 current – cell-based, automated electrophysiology, mechanism study for KCNQ2 potentiator project, dose response (AID 2603); type: functional
# Chain of Potassium voltage-gated channel subfamily KQT member 2 (O88943 whole entry W236L): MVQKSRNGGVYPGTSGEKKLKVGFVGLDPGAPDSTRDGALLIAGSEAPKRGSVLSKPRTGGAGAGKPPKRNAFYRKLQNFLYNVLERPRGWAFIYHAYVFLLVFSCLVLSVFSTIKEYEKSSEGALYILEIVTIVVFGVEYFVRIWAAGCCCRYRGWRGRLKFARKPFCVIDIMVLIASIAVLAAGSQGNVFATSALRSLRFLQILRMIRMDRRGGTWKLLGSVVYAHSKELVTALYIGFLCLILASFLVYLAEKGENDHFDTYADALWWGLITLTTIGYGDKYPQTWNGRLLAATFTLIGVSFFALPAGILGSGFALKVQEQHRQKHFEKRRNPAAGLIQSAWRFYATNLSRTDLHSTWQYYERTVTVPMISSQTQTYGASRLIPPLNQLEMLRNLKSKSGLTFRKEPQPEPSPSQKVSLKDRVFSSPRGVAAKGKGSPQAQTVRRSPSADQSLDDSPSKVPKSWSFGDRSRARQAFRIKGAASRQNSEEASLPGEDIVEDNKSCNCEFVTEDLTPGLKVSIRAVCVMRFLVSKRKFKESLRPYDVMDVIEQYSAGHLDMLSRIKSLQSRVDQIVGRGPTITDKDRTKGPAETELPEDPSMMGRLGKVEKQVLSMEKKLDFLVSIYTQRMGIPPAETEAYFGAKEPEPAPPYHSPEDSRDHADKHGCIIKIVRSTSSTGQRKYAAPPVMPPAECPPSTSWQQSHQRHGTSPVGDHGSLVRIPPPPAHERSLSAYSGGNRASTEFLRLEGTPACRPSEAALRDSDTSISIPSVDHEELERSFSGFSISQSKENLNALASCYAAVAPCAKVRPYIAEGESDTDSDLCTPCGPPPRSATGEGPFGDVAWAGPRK
# [8] = Luminescence Cell-Based Dose Confirmation to Identify Activators of 5'UTR Stem-Loop Driven Alpha-Synuclein mRNA Translation in H4 Neuroglioblastoma Cells. [Related pubchem assays: 1829 (Project Summary), 1814 (Primary HTS)]; type: functional
# [9] = Plasmodium falciparum Dd2 Sybr green parasite growth Measured in Cell-Based and Microorganism Combination System Using Plate Reader - 2153-01_Inhibitor_Dose_DryPowder_Activity_Set10.; type: functional
# [10] = target: T1, Heat shock factor protein 1 (Mus musculus, UniProt P38532); assay: decrease of HSF1-responsive luciferase luminescence – cell-based, NIH3T3, dose retest, confirmation (AID 2382); type: functional;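 further: NIH3T3 fibroblasts with HSF1-driven luciferase reporter stressed by proteasome inhibitor MG132; luminescence from HSF1-driven luciferase expression after 8 hours of MG132 stress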
# T1 sequence (P38532 whole entry): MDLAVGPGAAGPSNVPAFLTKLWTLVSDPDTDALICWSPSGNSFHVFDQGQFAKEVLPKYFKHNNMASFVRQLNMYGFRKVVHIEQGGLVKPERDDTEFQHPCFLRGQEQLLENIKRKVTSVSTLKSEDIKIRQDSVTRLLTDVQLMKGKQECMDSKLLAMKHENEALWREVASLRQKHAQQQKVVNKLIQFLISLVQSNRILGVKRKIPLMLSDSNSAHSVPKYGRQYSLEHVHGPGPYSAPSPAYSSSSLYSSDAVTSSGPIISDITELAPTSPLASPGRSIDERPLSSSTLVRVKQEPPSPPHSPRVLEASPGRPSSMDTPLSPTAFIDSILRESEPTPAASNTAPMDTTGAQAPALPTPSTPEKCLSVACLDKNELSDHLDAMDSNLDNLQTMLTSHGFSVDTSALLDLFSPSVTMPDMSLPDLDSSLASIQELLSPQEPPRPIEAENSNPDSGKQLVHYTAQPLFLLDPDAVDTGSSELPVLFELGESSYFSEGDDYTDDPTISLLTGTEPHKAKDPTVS
# [11] = target: Oxytocin receptor (Homo sapiens, UniProt P30559); assay: Counterscreen for vasopressin 1 receptor (V1R) agonists: Fluorescence-based cell-based high throughput dose response assay for agonists of the Oxytocin Receptor (OXTR). [Related pubchem assays: 2435 (Primary screen (OXTR agonists in singlicate)), 434964 (Confirmation screen (V1R agonists in triplicate)), 434969 (Counterscreen (OXTR agonists in …; type: functional
# Chain of Oxytocin receptor (P30559 whole entry): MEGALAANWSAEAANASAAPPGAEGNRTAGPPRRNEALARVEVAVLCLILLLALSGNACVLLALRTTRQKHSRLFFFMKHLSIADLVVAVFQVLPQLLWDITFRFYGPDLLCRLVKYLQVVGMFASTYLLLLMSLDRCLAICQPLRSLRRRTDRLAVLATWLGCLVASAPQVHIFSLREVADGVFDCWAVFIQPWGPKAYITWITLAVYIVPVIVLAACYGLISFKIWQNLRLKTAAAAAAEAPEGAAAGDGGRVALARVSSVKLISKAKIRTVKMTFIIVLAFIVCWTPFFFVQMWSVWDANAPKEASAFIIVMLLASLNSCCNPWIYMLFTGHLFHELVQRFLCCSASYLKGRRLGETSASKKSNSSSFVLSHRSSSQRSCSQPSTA
# [12] = target: Vasopressin V1a receptor (Homo sapiens, UniProt P37288); assay: Fluorescence-based cell-based high throughput dose response screening assay for agonists of the vasopressin 1 receptor (V1R).; type: functional
# Chain of Vasopressin V1a receptor (P37288 whole entry): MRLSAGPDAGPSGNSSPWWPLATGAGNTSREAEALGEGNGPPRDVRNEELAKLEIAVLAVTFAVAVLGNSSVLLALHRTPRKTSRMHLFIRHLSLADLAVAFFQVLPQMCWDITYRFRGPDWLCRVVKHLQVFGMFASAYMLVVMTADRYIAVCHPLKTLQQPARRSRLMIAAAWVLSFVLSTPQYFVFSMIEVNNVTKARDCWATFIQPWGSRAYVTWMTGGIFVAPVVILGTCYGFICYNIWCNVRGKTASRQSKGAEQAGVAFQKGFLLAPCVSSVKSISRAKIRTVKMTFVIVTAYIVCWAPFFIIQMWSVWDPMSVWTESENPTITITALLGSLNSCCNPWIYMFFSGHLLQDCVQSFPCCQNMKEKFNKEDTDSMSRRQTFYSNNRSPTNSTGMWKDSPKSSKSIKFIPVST
# [13] = rise of 2N DNA cells, HeLa – IC50, dose response (AID 1117349); type: functional, cell-based
# [14] = IC50 of insulin release inhibition, rat insulinoma INS-1E line, 5 mM glucose, cell-based (AID 1117331); type: functional
# [15] = cells; type: functional, cell-based; settings: INS-1E
# [16] = rise of 4N DNA cells, HeLa – IC50, dose response (AID 1117351); type: functional, cell-based
# [17] = HEK-293T viability loss after treatment – luminescence, T-cell screen hits, cytotoxicity control for TCR NF-kB inhibitor project, dose response (AID 489026); type: functional, cell-based;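 further: cells exposed to compound about 14 hours before the viability readout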
# [18] = target: Nonstructural protein 1 (Influenza A virus, UniProt Q194T2); type: functional, Influenza A virus (A/California/07/2009(H1N1))
# Chain of Nonstructural protein 1 (Q194T2 whole entry): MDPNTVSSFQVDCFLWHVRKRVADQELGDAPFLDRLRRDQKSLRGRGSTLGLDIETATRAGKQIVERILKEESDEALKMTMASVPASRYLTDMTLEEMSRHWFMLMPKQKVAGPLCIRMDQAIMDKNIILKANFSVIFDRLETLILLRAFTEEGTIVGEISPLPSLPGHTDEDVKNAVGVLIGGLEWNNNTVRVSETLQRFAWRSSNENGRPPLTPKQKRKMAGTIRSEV
# [19] = target: Dual specificity tyrosine-phosphorylation-regulated kinase 1A (Rattus norvegicus, UniProt Q63470); type: biochemical, Homo sapiens
# [20] = reduction of Shn3 3'UTR-driven luciferase in osteoblasts – cell-based, Clone20 osteoblasts, firefly luciferase, cherry-picked, dose response (AID 624132); type: functional;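 further: firefly luciferase luminescence from reporter carrying the Shn3 3'UTR in osteoblasts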
# [21] = system: P388/ADR; assay: cells; type: functional; settings: Mus musculus
# [22] = loss of viability in HepG2 cells – cell-based, CellTiter-Glo, cherry-picked, cytotoxicity control for Shn3 inhibitor project, dose response (AID 624134); type: functional
# [23] = non-specific 3'UTR reporter inhibition in Clone20-Shn3RL – cell-based, Renilla luciferase, cherry-picked, counter-screen for Shn3 inhibitor project, dose response (AID 624133); type: functional
# [24] = system: SN12K1; assay: cells; type: functional; settings: Homo sapiens
# [25] = system: P388; assay: cells; type: functional; settings: Mus musculus
# [26] = target: T2, Rac GTPase-activating protein 1 (Homo sapiens, UniProt Q9H0H5); assay: blockers of MgcRacGAP-driven Rac1 GTP hydrolysis – biochemical, ADP Hunter fluorescence, primary and confirmatory, confirmation (AID 624330); type: functional
# T2 sequence (Q9H0H5 whole entry): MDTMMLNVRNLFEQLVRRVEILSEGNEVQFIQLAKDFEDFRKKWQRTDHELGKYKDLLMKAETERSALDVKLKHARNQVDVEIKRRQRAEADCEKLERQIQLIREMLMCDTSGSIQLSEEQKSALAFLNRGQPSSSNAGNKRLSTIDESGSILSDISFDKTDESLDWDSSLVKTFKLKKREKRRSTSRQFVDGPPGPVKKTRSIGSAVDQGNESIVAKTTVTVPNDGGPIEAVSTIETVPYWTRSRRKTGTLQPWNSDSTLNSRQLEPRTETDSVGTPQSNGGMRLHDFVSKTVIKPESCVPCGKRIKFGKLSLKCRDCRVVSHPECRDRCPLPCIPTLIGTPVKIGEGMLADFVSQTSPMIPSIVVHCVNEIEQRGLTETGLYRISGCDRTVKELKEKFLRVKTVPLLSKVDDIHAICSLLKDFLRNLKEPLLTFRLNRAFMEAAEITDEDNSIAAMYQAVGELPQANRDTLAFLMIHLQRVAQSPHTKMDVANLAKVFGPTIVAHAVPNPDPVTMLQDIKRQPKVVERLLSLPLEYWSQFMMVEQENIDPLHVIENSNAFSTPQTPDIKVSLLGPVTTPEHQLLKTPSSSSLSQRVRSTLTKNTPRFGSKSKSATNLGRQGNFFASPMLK
# [27] = target: T3, DNA repair protein RAD52 homolog (Homo sapiens, UniProt P43351); type: functional, biochemical
# T3 sequence (P43351 whole entry): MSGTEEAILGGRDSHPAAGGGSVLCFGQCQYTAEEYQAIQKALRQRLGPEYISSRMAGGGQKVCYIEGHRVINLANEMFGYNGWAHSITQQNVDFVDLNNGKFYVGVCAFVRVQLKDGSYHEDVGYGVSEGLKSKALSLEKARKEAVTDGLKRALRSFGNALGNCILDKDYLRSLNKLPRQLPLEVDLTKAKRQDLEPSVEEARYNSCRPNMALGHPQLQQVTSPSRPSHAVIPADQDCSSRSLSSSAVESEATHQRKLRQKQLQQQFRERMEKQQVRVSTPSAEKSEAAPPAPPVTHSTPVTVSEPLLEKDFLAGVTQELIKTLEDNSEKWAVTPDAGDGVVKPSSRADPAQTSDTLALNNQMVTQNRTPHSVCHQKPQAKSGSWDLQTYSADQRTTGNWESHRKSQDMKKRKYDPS
# [28] = target: Paired box protein Pax-8 (Homo sapiens, UniProt Q06710); assay: PAX8 transcriptional activity inhibition in RMG-I – RMG-I cells, luciferase, cherry-pick, dose response (AID 687027); type: functional, cell-based;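 further: luciferase reporter driven by Pax8 target thyroperoxidase promoter measured by SteadyGlo luminescence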
# Chain of Paired box protein Pax-8 (Q06710 whole entry): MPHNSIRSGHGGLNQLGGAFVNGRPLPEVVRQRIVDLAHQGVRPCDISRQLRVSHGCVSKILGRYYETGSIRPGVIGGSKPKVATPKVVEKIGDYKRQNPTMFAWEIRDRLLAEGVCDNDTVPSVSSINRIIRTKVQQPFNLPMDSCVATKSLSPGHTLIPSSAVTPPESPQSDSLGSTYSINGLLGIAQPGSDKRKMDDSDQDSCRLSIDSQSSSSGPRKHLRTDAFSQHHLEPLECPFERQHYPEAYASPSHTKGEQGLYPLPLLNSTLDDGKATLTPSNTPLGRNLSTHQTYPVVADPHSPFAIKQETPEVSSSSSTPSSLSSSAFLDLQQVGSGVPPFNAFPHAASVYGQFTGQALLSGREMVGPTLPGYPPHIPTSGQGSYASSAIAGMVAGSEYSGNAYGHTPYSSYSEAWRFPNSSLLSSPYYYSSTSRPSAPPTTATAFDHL
# [29] = HGIII-sPLA2 enzyme inhibition potency – biochemical, QFRET, IC50, dose response (AID 743457);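 further: green fluorescence rise as the enzyme cleaves BODIPY PC-A2 in liposomes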
# [30] = CellTiter-Glo luminescence survival assay, SW480 colon tumor line, concentration-response curve, half-maximal inhibitory concentration (AID 1117338); type: functional
# [31] = RKO cell viability reduction, dose response, CellTiter-Glo luminescence (AID 1117322); type: functional
# [32] = cytotoxicity toward HCT116 cells – cell-based, CellTiter-Glo luminescence, IC50, dose response (AID 1117332); type: functional; settings: HCT-116
# [33] = SNU-C1 cell viability reduction, dose response, CellTiter-Glo luminescence (AID 1117323); type: functional, cell-based
# [34] = viability loss in THP-1 monocytes – THP-1 cells, cytotoxicity control for Vif-APOBEC3G degradation inhibitor project, dose response (AID 1117359); type: functional; settings: THP-1
# [35] = target: Glutathione-S-transferase (Schistosoma japonicum, UniProt Q26513); assay: GST-antibody interaction or FRET quenching – biochemical, TR-FRET, artefact control for Vif-APOBEC3G degradation inhibitor project, dose response (AID 1117362); type: functional
# Chain of Glutathione-S-transferase (Q26513 whole entry): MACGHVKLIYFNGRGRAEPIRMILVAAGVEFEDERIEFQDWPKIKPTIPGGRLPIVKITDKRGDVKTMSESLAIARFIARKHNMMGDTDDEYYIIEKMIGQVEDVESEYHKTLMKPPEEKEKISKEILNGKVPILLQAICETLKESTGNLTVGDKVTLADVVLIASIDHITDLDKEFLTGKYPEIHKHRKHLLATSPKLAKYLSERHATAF
# [36] = Reduced DLD-1 viability, concentration-response, CellTiter-Glo luminescence (AID 1117352); type: functional
# [37] = HCT116 cell viability decrease, GSK3B pretreatment – CellTiter-Glo, IC50, dose response (AID 1117339); type: functional; settings: HCT-116
compound,measurement,setting,value
O=C(CSc1nnc(-c2cccnc2)n1C1CCCCC1)NC1CCCCC1,EC50,[1],40 nM (not active)
Cc1ccc2nc(O)c(CN(CCCN(C)C)C(=O)Nc3ccc(Cl)cc3)cc2c1,IC50,[2],17800 nM (active)
Cc1ccc(NC(=O)NCC2CC2(Cl)Cl)cc1 (stereo not drawn),EC50,[3],> 12000 nM (not active)
same,EC50,[4],226 nM (active)
same,EC50,[5],8760 nM (active)
same,EC50,[6],399 nM (active)
same,EC50,[7],2170 nM (active)
same,EC50,[8],1720 nM (active)
COc1ccc(-c2ccccc2[C@@H]2[C@H](C#N)N(C(=O)C3CCCC3)[C@H]2CO)cc1,AC50,[9],19100 nM (active)
CCN1C(=S)SC(=O)C1=C1C=C(C)N(Cc2ccco2)C(C)=C1,EC50,[3],313 nM (active)
same,EC50,[5],< 100 nM (active)
same,EC50,[10],> 195000 nM (not active)
same,EC50,[6],263 nM (active)
same,EC50,[11],16700 nM (not active)
same,EC50,[12],10500 nM (not active)
same,EC50,[8],287 nM (active)
Cc1ccc(S(=O)(=O)NC(=O)NN2CC3CCCC3C2)cc1 (stereo not drawn) [GLICLAZIDE],IC50,[13],> 10000 nM (inactive)
same,IC50,[14],1830 nM (active)
same,IC50,[15],> 33300 nM (inactive)
same,IC50,[16],> 10000 nM (inactive)
O=C1c2c(O)ccc(O)c2C(=O)c2c(NCCNCCO)ccc(NCCNCCO)c21 [MITOXANTRONE HYDROCHLORIDE],IC50,[17],37900 nM (inactive)
same,IC50,[18],1100 nM (active)
same,AC50,[19],9510 nM (active)
same,AC50,[20],658 nM (active)
same,GI50,[21],22.2 nM (active)
same,AC50,[22],535 nM (active)
same,AC50,[23],33600 nM (active)
same,GI50,[24],5.3 nM (active)
same,GI50,[25],3.55 nM (active)
same,IC50,[26],14800 nM (active)
same,AC50,[27],< 150 nM (active)
same,AC50,[28],690 nM (active)
same,IC50,[29],> 122000 nM (inactive)
same,IC50,[13],> 10000 nM (inactive)
same,IC50,[30],1830 nM (active)
same,IC50,[31],1030 nM (active)
same,IC50,[32],1230 nM (active)
same,IC50,[33],1720 nM (active)
same,CC50,[34],< 80 nM (active)
same,IC50,[35],3850 nM (active)
same,IC50,[16],> 10000 nM (inactive)
same,IC50,[36],1600 nM (active)
same,IC50,[37],1 nM (active)
